Test results from patent US20250255847A1, “[…]s: Novel Drugs for Triple Negative Breast Cancer” (SIMMARON RSEARCH INC, priority 2024, published 2025).

Tests used:
IL6 = IL6 real-time PCR and ELISA in MDA-MB-468 cells; assay type: cell-based, human; conditions: for gene expression of IL6 (real-time PCR): 20 nM, 5 hrs; for IL6 protein in supernatants (ELISA): EGF stimulation, 48 hrs
Procedure: (§1) FIG. 10 illustrates an embodiment of the present invention and illustrates SIM-1 and SIM-2 inhibit expressions of IL6, RANTES, and other STAT3-dependent tumor promoting genes and proteins. (A) A gene array of STAT3 dependent 66 genes (listed in Table 1) was performed in mRNA samples of MDA-MB-468 cells. Realtime PCR plate coated with 66 primer sets of STAT3-dependent genes was run for four conditions including control, EGF (25 ng/mL), EGF+SIM-1 (10 nM) and EGF+SIM-2 (10 nM). The resultant Ct value was normalized with four different housekeeping genes, and then summarized with a heatmap analyses drawn in Morpheus server of Broad Institute. […] (C) The cloning of STAT3 response element of IL6 promoter upstream of GFP reporter was performed by GeneCopoea genome editing service (Rockville, MD). The bit score map and sequence of consensus STAT3 response element or SEQ ID NO: 2 was shown below. EGFP reporter assay was performed in EGF-induced (20 ng/mL) MDA-MB-468 after treatments of increasing doses of (D) SIM-1 and (E) SIM-2 for 5 hrs. Briefly, MDA-MB-468 cells were transfected with the plasmid for 24 hrs using Lipofectamine transfection strategy followed by the treatment with EGF (20 ng/mL) alone and together with increasing doses SIM-1 and SIM-2 for additional 5 hrs. After that live cells were recorded at Ex:Em=485/535 nm wavelength for GFP activity. (F) The scrambled STAT3 response element in IL6 promoter or SEQ ID NO: 3 was also synthesized partnering with GeneCopoea. One-way ANOVA (treatment as effector) was adopted to test the significance between groups at **p<0.01, #p<0.005, and *p<0.05. (G) The GFP reporter activity was measured where the scrambled gene was cloned upstream of eGFP reporter. Results are mean±SD of three different experiments Ns=no significance. (H) Realtime PCR analyses of IL6 was performed in MDA-MB-468 cells maintained under control, EGF (25 ng/mL), EGF+SIM-1(20 nM), and EGF+SIM-2 (20 nM) conditions for 5 hrs. (I) ELISA analysis of IL6 was performed after 48 hrs in MDA-MB-468 cells kept under similar treatment conditions. (J) Realtime PCR (5 hrs post-treatment) and (K) ELISA analyses of RANTES (48 hrs post treatment) were performed under similar condition. Results are mean±SD of three different experiments. One-way ANOVA (treatment as effector) was adopted to test the significance between groups at ***p<0.001, **p<0.01, and *p<0.05.
(§2) ELISA assay. IL6 (BD OptEIA™; Cat #555220) and RANTES (Thermo; Cat #EHRNTS) ELISA was performed as per manufacturer's protocol. […]
(§3) Once the transcriptional regulation of STAT3-dependent genes was confirmed, the quantification of IL6 was performed. […]

RANTES = RANTES real-time PCR and ELISA in MDA-MB-468 cells; assay type: cell-based, human; conditions: 20 nM; for gene expression of RANTES (real-time PCR): 5 hrs post-treatment; for protein expression of RANTES (ELISA): 48 hrs post treatment
Procedure: as §1, §2, §3

Row | SMILES | gene expression of IL6 (real-time PCR) (IL6) | IL6 protein in supernatants (ELISA) (IL6) | gene expression of RANTES (real-time PCR) (RANTES) | protein expression of RANTES (ELISA) (RANTES)
1 | O=C(O)CCC(=O)NCc1csc2ccc(Cl)cc12 [SIM-1, 4-[(5-chloro-1-benzothiophen-3-yl)methylamino]-4-oxobutanoic acid] | strongly inhibited | suppression of IL6 | significantly downregulated | significantly downregulated
2 | CCOC(=O)c1c(NC(C)=O)sc2c(Cl)c(/C=N/O)ccc12 [SIM-2, ethyl 2-acetamido-7-chloro-6-(hydroxyiminomethyl)-1-benzothiophene-3-carboxylate] | strongly inhibited | suppression of IL6 | significantly downregulated | significantly downregulated
